# “And” between values parts separate entries of the source, which are not always exact repeats. Equal values may be shown once. Where a SMILES comes first, the peptide text is derived from it. [ ]: non-standard residue; d: D form. Hyp = O=C(O)[C@@H]1C[C@@H](O)CN1
# System: IL-6
# Assay: Example 9 Luminex, LPS hPBMCs: IL-6
# Type: cell-based, human
# Conditions: Bead IL-6, PBMC + LPS(5 ug/ml)
# Description: Treatment Human PBMCs were pretreated with YY-101, YDE-011 and YDE-043 or reference compound; Xiidra® at various concentration (ranging from 1 nM to 100 uM) for 2 h before stimulation. An equal volume of 0.5% DMSO was used as a vehicle control. Then, the cells were treated with LPS at 5 ug/ml. The supernatants from treated cells were harvested at 24 h and placed in a 96 well for Luminex cytokine & chemokine profiling using a Luminex 200 multiplex assay (Luminex; R&D system, USA).
# The main study arm with triplicate wells per group in a 24-well plate: • 1. Blank • 2. PBMC: 0.5% DMSO • 3. PBMC+LPS (5 ug/ml) • 4. PBMC+YY-101 100 uM • 5. PBMC+YY-101 10 uM • 6. PBMC+YY-101 1 uM • 7. PBMC+YY-101 0.1 uM • 8. PBMC+YY-101 0.01 uM • 9. PBMC+LPS (5 ug/ml)+Xiidra®100 uM • 10. PBMC+LPS (5 ug/ml)+Xiidra® 10 uM • 11. PBMC+LPS (5 ug/ml)+Xiidra® 1 uM • 12. PBMC+LPS (5 ug/ml)+Xiidra®0.1 uM • 13. PBMC+LPS (5 ug/ml)+Xiidra®0.01 uM • 14. PBMC+LPS (5 ug/ml)+Xiidra®0.001 uM • 15. PBMC+LPS (5 ug/ml)+YY-101 100 uM • 16. PBMC+LPS (5 ug/ml)+YY-101 10 uM • 17. PBMC+LPS (5 ug/ml)+YY-101 1 uM • 18. PBMC+LPS (5 ug/ml)+YY-101 0.1 uM • 19. PBMC+LPS (5 ug/ml)+YY-101 0.01 uM • 20. PBMC+LPS (5 ug/ml)+YY-101 0.001 uM • 21. PBMC+LPS (5 ug/ml)+YDE-011 100 uM • 22. PBMC+LPS (5 ug/ml)+YDE-011 10 uM • 23. PBMC+LPS (5 ug/ml)+YDE-011 1 uM • 24. PBMC+LPS (5 ug/ml)+YDE-011 0.1 uM • 25. PBMC+LPS (5 ug/ml)+YDE-011 0.01 uM • 26. PBMC+LPS (5 ug/ml)+YDE-011 0.001 uM • 27. PBMC+LPS (5 ug/ml)+YDE-043 100 uM • 28. PBMC+LPS (5 ug/ml)+YDE-043 10 uM • 29. PBMC+LPS (5 ug/ml)+YDE-043 1 uM • 30. PBMC+LPS (5 ug/ml)+YDE-043 0.1 uM • 31. PBMC+LPS (5 ug/ml)+YDE-043 0.01 uM • 32. PBMC+LPS (5 ug/ml)+YDE-043 0.001 uM
# Multiplex assay was used to measure 30 cytokines and chemokines. The 1:2, 1:10 and 1:200 diluted cell supernatant and serial dilution of the standard were dispensed into a 96 well plate at 50 ul/well. Then, the pre-mixed cocktail of antibody-coated magnetic beads was dispensed at 50 ul/well and incubated at room temperature for 2 h in a horizontal orbital microplate shaker at 800±500 rpm. The beads were washed using a magnetic device to prevent loss. The biotin-antibody was dispensed in 50 ul of each well and incubated at room temperature for 1 h in a shaker at 800±500 rpm. After washing, streptavidin-PE was added at 50 ul/well and incubated at room temperature for 30 min in a shaker under the same conditions. Finally, after washing, wash buffer (100 ul/well) was added to the plate and incubated in a shaker for 2 min. The Luminex™ 200 setting were set according to the manufacturer's protocol. The data was calculated with a standard five-parameter logistic nonlinear regression analysis of the data (xPonent software 4.2, USA). The levels of cytokine/chemokine are normalized to the live cell counts (1×10^5 cells/mL) and presented as concentrations per mL (pg/mL or ng/mL).
smiles,measurement,setting,value
CC(C)C[C@H](NC(=O)[C@H](CCC(N)=O)NC(=O)CNC(=O)[C@@H]1C[C@@H](O)CN1)C(=O)NCC(=O)O [YDE-043] (H-[Hyp]GQLG-OH; N-terminus and C-terminus assumed),Concentration,"0.001 uM, Mean",7090.4 pg/mL
same,MFI,"0.001 uM, Mean",197.1
same,conc/live cell,"0.001 uM, Mean",1434.2 pg/10^5
same,Concentration,"0.001 uM, single replicates",6355.1 pg/mL and 7578.4 pg/mL and 7337.9 pg/mL
same,MFI,"0.001 uM, single replicates",175.8 and 211.3 and 204.3
same,conc/live cell,"0.001 uM, single replicates",1444.3 pg/10^5 and 1263.1 pg/10^5 and 1595.2 pg/10^5
same,Concentration,"0.01 uM, Mean",6942.0 pg/mL
same,MFI,"0.01 uM, Mean",192.8
same,conc/live cell,"0.01 uM, Mean",1327.4 pg/10^5
same,Concentration,"0.01 uM, single replicates",7062.6 pg/mL and 7011.0 pg/mL and 6752.4 pg/mL
same,MFI,"0.01 uM, single replicates",196.3 and 194.8 and 187.3
same,conc/live cell,"0.01 uM, single replicates",1569.5 pg/10^5 and 1062.3 pg/10^5 and 1350.5 pg/10^5
same,Concentration,"0.1 uM, Mean",6590.8 pg/mL
same,MFI,"0.1 uM, Mean",182.6
same,conc/live cell,"0.1 uM, Mean",1223.6 pg/10^5
same,Concentration,"0.1 uM, single replicates",6528.0 pg/mL and 6147.3 pg/mL and 7097.1 pg/mL
same,MFI,"0.1 uM, single replicates",180.8 and 169.8 and 197.3
same,conc/live cell,"0.1 uM, single replicates",1305.6 pg/10^5 and 1097.7 pg/10^5 and 1267.3 pg/10^5
same,Concentration,"1 uM, Mean",6992.5 pg/mL
same,MFI,"1 uM, Mean",194.3
same,conc/live cell,"1 uM, Mean",1321.1 pg/10^5
same,Concentration,"1 uM, single replicates",7131.5 pg/mL and 6164.6 pg/mL and 7681.3 pg/mL
same,MFI,"1 uM, single replicates",198.3 and 170.3 and 214.3
same,conc/live cell,"1 uM, single replicates",1229.6 pg/10^5 and 1284.3 pg/10^5 and 1449.3 pg/10^5
same,Concentration,"10 uM, Mean",9513.9 pg/mL
same,MFI,"10 uM, Mean",268.1
same,conc/live cell,"10 uM, Mean",1764.4 pg/10^5
same,Concentration,"10 uM, single replicates",7303.5 pg/mL and 14554.8 pg/mL and 6683.4 pg/mL
same,MFI,"10 uM, single replicates",203.3 and 415.8 and 185.3
same,conc/live cell,"10 uM, single replicates",1404.5 pg/10^5 and 2695.3 pg/10^5 and 1193.5 pg/10^5
same,Concentration,"100 uM, Mean",7286.3 pg/mL
same,MFI,"100 uM, Mean",202.8
same,conc/live cell,"100 uM, Mean",1157.1 pg/10^5
same,Concentration,"100 uM, single replicates",7389.4 pg/mL and 7183.1 pg/mL
same,MFI,"100 uM, single replicates",205.8 and 199.8
same,conc/live cell,"100 uM, single replicates",1191.8 pg/10^5 and 1122.4 pg/10^5
CC(C)C[C@H](NC(=O)CNC(=O)[C@H](CC(C)C)NC(=O)[C@H](CCC(N)=O)NC(=O)CNC(=O)[C@@H]1C[C@@H](O)CN1)C(=O)N[C@@H](C)C(=O)NCC(=O)N1CCC[C@H]1C(=O)N[C@@H](CCCCN)C(=O)O [YDE-011] (H-[Hyp]GQLGLAGPK-OH),Concentration,"0.001 uM, Mean",6729.3 pg/mL
same,MFI,"0.001 uM, Mean",186.6
same,conc/live cell,"0.001 uM, Mean",1268.0 pg/10^5
same,Concentration,"0.001 uM, single replicates",6493.4 pg/mL and 6683.4 pg/mL and 7011.0 pg/mL
same,MFI,"0.001 uM, single replicates",179.8 and 185.3 and 194.8
same,conc/live cell,"0.001 uM, single replicates",1443.0 pg/10^5 and 1152.3 pg/10^5 and 1208.8 pg/10^5
same,Concentration,"0.01 uM, Mean",7097.0 pg/mL
same,MFI,"0.01 uM, Mean",197.3
same,conc/live cell,"0.01 uM, Mean",1218.8 pg/10^5
same,Concentration,"0.01 uM, single replicates",7131.5 pg/mL and 6924.8 pg/mL and 7234.7 pg/mL
same,MFI,"0.01 uM, single replicates",198.3 and 192.3 and 201.3
same,conc/live cell,"0.01 uM, single replicates",1150.2 pg/10^5 and 1357.8 pg/10^5 and 1148.4 pg/10^5
same,Concentration,"0.1 uM, Mean",6700.6 pg/mL
same,MFI,"0.1 uM, Mean",185.8
same,conc/live cell,"0.1 uM, Mean",1180.6 pg/10^5
same,Concentration,"0.1 uM, single replicates",6458.9 pg/mL and 6907.6 pg/mL and 6735.2 pg/mL
same,MFI,"0.1 uM, single replicates",178.8 and 191.8 and 186.8
same,conc/live cell,"0.1 uM, single replicates",978.6 pg/10^5 and 1381.5 pg/10^5 and 1181.6 pg/10^5
same,Concentration,"1 uM, Mean",6838.4 pg/mL
same,MFI,"1 uM, Mean",189.8
same,conc/live cell,"1 uM, Mean",1364.4 pg/10^5
same,Concentration,"1 uM, single replicates",6821.4 pg/mL and 7217.5 pg/mL and 6476.2 pg/mL
same,MFI,"1 uM, single replicates",189.3 and 200.8 and 179.3
same,conc/live cell,"1 uM, single replicates",1240.3 pg/10^5 and 1503.6 pg/10^5 and 1349.2 pg/10^5
same,Concentration,"10 uM, Mean",6769.7 pg/mL
same,MFI,"10 uM, Mean",187.8
same,conc/live cell,"10 uM, Mean",1286.9 pg/10^5
same,Concentration,"10 uM, single replicates",6890.4 pg/mL and 6700.7 pg/mL and 6717.9 pg/mL
same,MFI,"10 uM, single replicates",191.3 and 185.8 and 186.3
same,conc/live cell,"10 uM, single replicates",1276.0 pg/10^5 and 1155.3 pg/10^5 and 1429.3 pg/10^5
same,Concentration,"100 uM, Mean",7572.5 pg/mL
same,MFI,"100 uM, Mean",211.1
same,conc/live cell,"100 uM, Mean",1247.9 pg/10^5
same,Concentration,"100 uM, single replicates",7801.4 pg/mL and 7715.7 pg/mL and 7200.3 pg/mL
same,MFI,"100 uM, single replicates",217.8 and 215.3 and 200.3
same,conc/live cell,"100 uM, single replicates",1278.9 pg/10^5 and 1264.9 pg/10^5 and 1200.1 pg/10^5

# — patent publication US20230146455A1, “TREATMENT OF INFLAMMATORY DISEASES WITH PEPTIDES AND PHARMACEUTICAL COMPOSITIONS” (Yuyu Pharma, Inc., priority 2020, published 2023)
